Reference: patent publication US20230303513A1, “OXOPYRROLIDINE UREA FPR2 AGONISTS” (BRISTOL-MYERS SQUIBB COMPANY, priority 2020, published 2023)
pEC50: −log10 of the molar value.

How the values were obtained:
[1] = biological target: human FPR2 (Homo sapiens (Human), UniProt P25090); assay: FPR2 cyclic adenosine monophosphate (cAMP) assay; type: cell-based; conditions: CHO cells overexpressing human FPR2; forskolin 5 μM, IBMX 200 μM; inhibition of cAMP production, HTRF; read-out: hFPR2 cAMP2 EC50
Chain of human FPR2 (P25090 whole entry): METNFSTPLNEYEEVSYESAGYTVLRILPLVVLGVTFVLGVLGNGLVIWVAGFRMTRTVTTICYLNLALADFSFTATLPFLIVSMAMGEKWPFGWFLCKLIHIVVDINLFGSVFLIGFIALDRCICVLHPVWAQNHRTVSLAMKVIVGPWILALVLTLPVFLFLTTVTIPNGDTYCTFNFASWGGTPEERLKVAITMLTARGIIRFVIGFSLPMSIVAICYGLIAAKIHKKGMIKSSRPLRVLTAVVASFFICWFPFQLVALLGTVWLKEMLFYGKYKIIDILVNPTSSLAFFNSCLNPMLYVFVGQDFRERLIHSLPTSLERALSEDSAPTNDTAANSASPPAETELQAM
From the text: (§1) N-formyl peptide receptors (FPRs) are a family of chemo attractant receptors that facilitate leukocyte response during inflammation. FPRs belong to the seven-transmembrane G protein-coupled receptor superfamily and are linked to inhibitory G-proteins (Gi). Three family members (FPR1, FPR2 and FPR3) have been identified in humans and are predominantly found in myeloid cells with varied distribution and have also been reported in multiple organs and tissues. After agonist binding, the FPRs activate a multitude of physiological pathways, such as intra cellular signaling transduction, Ca^21 mobilization and transcription. The family interacts with a diverse set of ligands that includes proteins, polypeptides and fatty acid metabolites which activate both pro-inflammatory and pro-resolution downstream responses. FPR2 and FPR1 Cyclic Adenosine Monophosphate (cAMP) Assays were used to measure the activity of the compounds in this patent.
(§2) FPR2 and FPR1 Cyclic Adenosine Monophosphate (cAMP) Assays. A mixture of forskolin (5 μM final for FPR2 or 10 μM final for FPR1) and IBMX (200 μM final) were added to 384-well Proxiplates (Perkin-Elmer) pre-dotted with test compounds in DMSO (1% final) at final concentrations in the range of 0.020 nM to 100 μM. Chinese Hamster Ovary cells (CHO) overexpressing human FPR1 or human FPR2 receptors were cultured in F-12 (Ham's) medium supplemented with 10% qualified FBS, 250 μg/ml zeocin and 300 μg/ml hygromycin (Life Technologies). Reactions were initiated by adding 2,000 human FPR2 cells per well or 4,000 human FPR1 cells per well in Dulbecco's PBS (with calcium and magnesium) (Life Technologies) supplemented with 0.1% BSA (Perkin-Elmer). The reaction mixtures were incubated for 30 min at room temperature. The level of intracellular cAMP was determined using the HTRF HiRange cAMP assay reagent kit (Cisbio) according to manufacturer's instruction. Solutions of cryptate conjugated anti-cAMP and d2 flurorophore-labelled cAMP were made in a supplied lysis buffer separately. Upon completion of the reaction, the cells were lysed with equal volume of the d2-cAMP solution and anti-cAMP solution. After a 1-h room temperature incubation, time-resolved fluorescence intensity was measured using the Envision (Perkin-Elmer) at 400 nm excitation and dual emission at 590 nm and 665 nm. A calibration curve was constructed with an external cAMP standard at concentrations ranging from 1 μM to 0.1 μM by plotting the fluorescent intensity ratio from 665 nm emission to the intensity from the 590 nm emission against cAMP concentrations. The potency and activity of a compound to inhibit cAMP production was then determined by fitting to a 4-parametric logistic equation from a plot of cAMP level versus compound concentrations.

[2] = biological target: human FPR1 (Homo sapiens (Human), UniProt P21462); assay: FPR1 cyclic adenosine monophosphate (cAMP) assay; type: cell-based; conditions: CHO cells overexpressing human FPR1; forskolin 10 μM, IBMX 200 μM; inhibition of cAMP production, HTRF; read-out: hFPR1 cAMP EC50
Chain of human FPR1 (P21462 whole entry): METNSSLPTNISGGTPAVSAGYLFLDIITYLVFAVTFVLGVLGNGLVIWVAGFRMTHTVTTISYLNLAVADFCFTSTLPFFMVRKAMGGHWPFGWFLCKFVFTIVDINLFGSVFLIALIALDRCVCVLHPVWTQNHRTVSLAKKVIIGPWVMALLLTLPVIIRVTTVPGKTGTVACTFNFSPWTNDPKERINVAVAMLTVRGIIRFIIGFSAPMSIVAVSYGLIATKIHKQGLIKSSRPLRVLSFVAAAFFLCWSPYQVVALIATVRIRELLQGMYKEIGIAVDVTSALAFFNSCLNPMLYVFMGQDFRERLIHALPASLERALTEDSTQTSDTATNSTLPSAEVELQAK
From the text: as §1, §2

| Compound | pEC50 [1] | pEC50 [2] |
| --- | --- | --- |
| COCCn1cccc(N2C[C@@H](c3ccc(OC)cc3)[C@H](NC(=O)NC3CCc4cc(Cl)ccc4C3)C2=O)c1=O (stereo partly drawn) [Example 16] | 8.77 | 8.33 |
| CCn1cccc(N2C[C@@H](c3c(F)cc(OC)cc3F)[C@H](NC(=O)NC3CCc4cc(OC)ccc4C3(C)C)C2=O)c1=O (stereo partly drawn) [Example 52] | 7.89 | 6.23 |
| COc1cc(F)c([C@@H]2CN(c3nccc(N4C[C@@H](C)N(C)[C@@H](C)C4)c3C(F)(F)F)C(=O)[C@H]2NC(=O)N[C@H]2CC[C@H](C(F)F)CC2)c(F)c1 [Example 25] | 8.55 | 5.79 |
| COCCn1cccc(N2C(=O)[C@@H](NC(=O)NC3CCc4cc(OC)ccc4C3)[C@H](c3c(F)cc(OC)cc3F)[C@@H]2C)c1=O (stereo partly drawn) [Example 29] | 8.48 | 8.62 |
| COc1cc(F)c([C@H]2[C@H](NC(=O)N[C@H]3CC[C@H](C(F)F)CC3)C(=O)N(c3ncccc3OC)[C@H]2C)c(F)c1 [Example 48] | 8.13 | 6.22 |
| COCCn1cccc(N2C(=O)[C@@H](NC(=O)NC3CCc4cc(Cl)ccc4C3)[C@H](c3c(F)cc(OC)cc3F)[C@@H]2C)c1=O (stereo partly drawn) [Example 27] | 8.54 | 8.60 |
| COc1ccc([C@H]2C[C@@H]2NC(=O)N[C@@H]2C(=O)N(c3ncccc3C(F)(F)F)C[C@H]2c2c(F)cc(OC)cc2F)cc1 [Example 49] | 8.00 | 5.60 |
| COCCn1cccc(N2C[C@@H](c3c(F)cc(OC)cc3F)[C@H](NC(=O)NC3CCc4cc(Cl)ccc4C3)C2=O)c1=O (stereo partly drawn) [Example 20] | 8.59 | 7.41 |
| COCCn1cccc(N2C(=O)[C@@H](NC(=O)NC3CCc4cc(OC)ccc4C3(C)C)[C@H](c3c(F)cc(OC)cc3F)[C@@H]2C)c1=O (stereo partly drawn) [Example 62] | 7.44 | 7.64 |
| COc1cc(F)c([C@@H]2CN(c3cccn(CCO)c3=O)C(=O)[C@H]2NC(=O)NC2CCc3cc(OC)ccc3C2)c(F)c1 (stereo partly drawn) [Example 21] | 8.82 | 9.40 |
| CCn1cccc(N2C[C@@H](c3ccc(OC)cc3)[C@H](NC(=O)NC3CCc4cc(Cl)ccc4C3)C2=O)c1=O (stereo partly drawn) [Example 6] | 9.40 | 10.00 |
| COCCn1cccc(N2C[C@@H](c3c(F)cc(OC)cc3F)[C@H](NC(=O)NC3CCc4cc(OC)ccc4C3)C2=O)c1=O (stereo partly drawn) [Example 34] | 8.38 | 9.52 |
| CCn1cccc(N2C[C@@H](c3ccc(OC)cc3)[C@H](NC(=O)NC3CCc4cc(OC)ccc4C3)C2=O)c1=O (stereo partly drawn) [Example 12] | 9.05 | 9.10 |
| COCCn1cccc(N2C[C@@H](c3c(F)cc(OC)cc3F)[C@H](NC(=O)NC3CCc4cc(OC)ccc4C3)C2=O)c1=O (stereo partly drawn) [Example 53] | 7.89 | 7.61 |
| COc1cc(F)c([C@H]2[C@H](NC(=O)NC3CCc4cc(OC)ccc4C3)C(=O)N(c3ncccc3OC)[C@H]2C)c(F)c1 (stereo partly drawn) [Example 15] | 8.82 | 7.88 |
| COCCn1ccc(OC)c(N2C[C@@H](c3c(F)cc(OC)cc3F)[C@H](NC(=O)NC3CCc4cc(OC)ccc4C3)C2=O)c1=O (stereo partly drawn) [Example 50] | 7.92 | 8.92 |
| COCCn1cccc(N2C[C@@H](c3ccc(OC)cc3)[C@H](NC(=O)NC3CCc4cc(OC)ccc4C3)C2=O)c1=O (stereo partly drawn) [Example 11] | 9.10 | 10.00 |
| COc1cc(F)c([C@@H]2CN(c3ncccc3C(F)(F)F)C(=O)[C@H]2NC(=O)NC2COc3cc(OC)ccc3C2)c(F)c1 (stereo partly drawn) [Example 33] | 8.40 | 8.38 |
| COc1cc(F)c([C@@H]2CN(c3cccn(CCO)c3=O)C(=O)[C@H]2NC(=O)NC2CCc3cc(Cl)ccc3C2)c(F)c1 (stereo partly drawn) [Example 14] | 8.85 | 9.10 |
| COc1cc(F)c([C@@H]2CN(c3c(OC)ccn(C)c3=O)C(=O)[C@H]2NC(=O)NC2CCc3cc(Cl)ccc3C2)c(F)c1 (stereo partly drawn) [Example 8] | 9.22 | 9.30 |
| COc1ccc([C@H]2C[C@@H]2NC(=O)N[C@@H]2C(=O)N(c3ncccc3C(F)(F)F)C[C@H]2c2c(F)cc(OC)cc2F)cc1 [Example 35] | 8.35 | 7.21 |
| COc1cc(F)c([C@@H]2CN(c3c(OC)ccn(C)c3=O)C(=O)[C@H]2NC(=O)NC2CCc3cc(OC)ccc3C2)c(F)c1 (stereo partly drawn) [Example 57] | 7.59 | 8.92 |
| COc1cc(F)c([C@@H]2CN(c3ncccc3C(F)(F)F)C(=O)[C@H]2NC(=O)NC2CCc3cc(Cl)ccc3C2)c(F)c1 (stereo partly drawn) [Example 43] | 8.22 | 8.15 |

Further lines, results first:

| pEC50 [1] | pEC50 [2] | Compound |
| --- | --- | --- |
| 8.10 | 6.00 | COc1cc(F)c([C@@H]2CN(c3nccc(N4CCN5CCCC5C4)c3C(F)(F)F)C(=O)[C@H]2NC(=O)N[C@H]2CC[C@H](C(F)F)CC2)c(F)c1 (single isomer, unassigned) [Example 102] |
| 7.77 | 5.68 | COc1cc(F)c([C@@H]2CN(c3nccc(N4CCN5CCCC5C4)c3C(F)(F)F)C(=O)[C@H]2NC(=O)N[C@H]2CC[C@H](C(F)F)CC2)c(F)c1 (single isomer, unassigned) [Example 103] |
| 7.27 | 5.96 | COc1cc(F)c([C@H]2[C@H](NC(=O)N[C@H]3CC[C@H](C(F)F)CC3)C(=O)N(c3cccn(CCO)c3=O)[C@H]2C)c(F)c1 [Example 71] |
| 8.85 | 9.52 | COc1cc(F)c([C@@H]2CN(c3c(C)ccn(CCO)c3=O)C(=O)[C@H]2NC(=O)NC2CCc3cc(OC)ccc3C2)c(F)c1 (single isomer, unassigned) [Example 84] |
| 7.77 | 5.92 | COCCn1cccc(N2C(=O)[C@@H](NC(=O)N[C@H]3CC[C@H](C(F)F)CC3)[C@H](c3c(F)cc(OC)cc3F)[C@@H]2C)c1=O [Example 105] |
| 7.26 | 5.30 | COc1cc(F)c([C@@H]2CN(c3cccn(CCO)c3=O)C(=O)[C@H]2NC(=O)N[C@H]2CC[C@H](C(F)F)CC2)c(F)c1 [Example 65] |
| 8.80 | 8.92 | COc1cc(F)c([C@@H]2CN(c3cccn(C(F)F)c3=O)C(=O)[C@H]2NC(=O)NC2CCc3cc(OC)ccc3C2)c(F)c1 (single isomer, unassigned) [Example 94] |
| 8.11 | 6.11 | COc1cc(F)c([C@@H]2CN(c3nccc(N4CCC(C)(O)C4)c3C(F)(F)F)C(=O)[C@H]2NC(=O)N[C@H]2CC[C@H](C(F)F)CC2)c(F)c1 (single isomer, unassigned) [Example 91] |
| 7.54 | 6.66 | COc1cc(F)c([C@@H]2CN(c3ncccc3C(F)(F)F)C(=O)[C@H]2NC(=O)NC2CCc3cc(OC)ccc3C2(C)C)c(F)c1 (stereo partly drawn) [Example 58] |
| 8.85 | 9.52 | CCn1nccc(N2C[C@@H](c3c(F)cc(OC)cc3F)[C@H](NC(=O)NC3CCc4cc(OC)ccc4C3)C2=O)c1=O (single isomer, unassigned) [Example 86] |
| 7.36 | < 5.30 | COc1cc(F)c([C@@H]2CN(c3nccc(N4CCC(C)(O)C4)c3C(F)(F)F)C(=O)[C@H]2NC(=O)N[C@H]2CC[C@H](C(F)F)CC2)c(F)c1 (single isomer, unassigned) [Example 92] |
| 7.68 | < 6.00 | CNC(=O)C(C)Nc1ccnc(N2C[C@@H](c3c(F)cc(OC)cc3F)[C@H](NC(=O)N[C@H]3CC[C@H](C(F)F)CC3)C2=O)c1C(F)(F)F (single isomer, unassigned) [Example 75] |
| 7.48 | 5.92 | COCCn1cccc(N2C[C@@H](c3c(F)cc(OC)cc3F)[C@H](NC(=O)N[C@H]3CC[C@H](C(F)F)CC3)C2=O)c1=O [Example 70] |
| 7.01 | < 5.00 | COc1cc(F)c([C@@H]2CN(c3ncccc3C(F)(F)F)C(=O)[C@H]2NC(=O)NC2CCC3(CC2)CC3)c(F)c1 [Example 67] |
| 8.28 | 5.74 | COCCNc1ccnc(N2C[C@@H](c3c(F)cc(OC)cc3F)[C@H](NC(=O)N[C@H]3CC[C@H](C(F)F)CC3)C2=O)c1C(F)(F)F [Example 69] |
| 7.57 | 5.32 | COc1cc(F)c([C@@H]2CN(c3nccc(NC4CCOCC4)c3C(F)(F)F)C(=O)[C@H]2NC(=O)N[C@H]2CC[C@H](C(F)F)CC2)c(F)c1 [Example 68] |
